Laboratory results as given in US20240142457A1, “USE OF CASD1 AS A BIOMARKER OF A CANCER EXPRESSING THE O-ACETYLATED-GD2 GANGLIOSIDE” (OGD2 PHARMA, priority 2021, published 2024).

What was measured:
[1] = test system: OAcGD2 expression in MDA-MB-231 GD3S+ cells; test: OAcGD2 immunocytochemistry and confocal microscopy after CERK inhibitor or siRNA; format: cell-based, human; details: 1 μM NVP231, 2, 4, 6, 8, 20, 24 or 48 hours; increase from 2 to 8 hours, decrease after 8 hours
Procedure: (§1) Transfections were performed with 10 μM of siRNA control non-targeting (D001810-10-20, Horizon), siRNA targeting CASD1 (L-016926-01-0010, Horizon), or two different siRNA targeting CERK: CERK2 (D-004061-02-0010, Horizon), or CERK4 ([…], Horizon) and 4 μL of RNAimax (#137781, Thermo fischer Scientific) in 500 μL of UltraMEM (Lonza). In 6-well plates, 150,000 cells were grown in 1,5 mL of DMEM and transfection mix. Cells were collected 72 hours after transfection for qPCR or immunocytochemistry experiments.
Cells were seeded in 6-well plates (150,000 cells/well) with coverslips in 2 mL of DMEM medium. After 24 hours, the medium was replaced with DMEM containing 1 μM of the CERK inhibitor NVP231 (SigmaN9289). After 2 h, 4 h, 6 h, 8 h, 20 h, 24 h or 48 h of CERK inhibitor treatment, cells were collected for immunocytochemistry experiments.
Transfected cells were grown on glass coverslips and were fixed for 20 min in 4% paraformaldehyde. Cells were washed three times with PBS 1X and membrane permeabilization was performed in 5 μg/mL digitonine in PBS 1X for 20 min. After 3 washes, cells were saturated in PBS 1X-BSA 0.5% blocking buffer. […] The green fluorescence was acquired with λex=488 nm and λem=500-530 nm, DAPI with λex=350 nm and λem=460 nm. […] Mean fluorescence intensity was calculated with macro using ImageJ.

MDA-MB-231 GD3S+ cells = test: Transwell migration assay; format: cell-based, human; details: 1 μM NVP231, 24 hours, vs untreated
Procedure: as §1
Cells were seeded in 12-well plates containing migration chamber in serum-free medium. Below the chamber, medium with serum was added into the wells in the presence or absence of 1 μM of NVP231. After 24 hours incubation at 37° C., wells were fixed with 4% paraformaldehyde and non-migratory cells were swapped with cotton swabs. Cells were washed three times and nuclei were stained with DAPI. Membranes were cut out and mounted between glass slide and coverslip with fluorescent mounting medium. Nuclei were counted using A1 Nikon confocal microscopy.

[2] = test system: OAcGD2 expression in MDA-MB-231 GD3S+ cells; test: siRNA screen, OAcGD2 immunofluorescence (8B6 mAb) with automated imaging; format: cell-based, human; details: fixed cells treated with NaOH 0.1M before primary antibody staining, compared to siNT transfected wells
Procedure: 2.5 μL/well of 500 nM siGenome siRNA (Dharmacon/Horizon) was printed into blackwalled 384 well cell carrier ultra plates (Perkin Elmer) with Velocity 11 (Agilent) as described before (Chia et al., 2012, Mol. Syst. Biol., 8: 629.). Reverse siRNA transfection was performed by pre-mixing 0.1 μL of Dharmafect 1 transfection reagent (#T-2001-03, Horizon) with 7.4 μL of Optimem for 5 minutes. Addition of mixture to the siRNA plate was then performed with small multidrop combi cassette (Thermo-Fisher) and was left for complexation for 20 minutes with shaking. Addition of 2750 cells in 40 μL of DMEM supplemented with 10% FCS per well was then performed with multidrop combi standard cassette at medium speed (Thermo-Fisher). siRNA targeting-GD2S (L-011279-00-0020, Horizon), Polo like kinase 1 (PLK1; L-003290-00-0020, Horizon) and […] (D-001810-10-20, Horizon) were used as screen controls.
After 72 h of incubation, transfected cells were fixed with 50 μL per well of 4% paraformaldehyde in 2% sucrose and 0.1M sodium phosphate buffer, […] at 37° C. […]
An OAcGD2 expression metric was derived with total cell thresholded fluorescence intensity obtained by immunodetection with 8B6 mAb in MDA-MB-231 GD3S+cells and was normalized with Hoeschst nuclei counts. […]

[3] = attributed to GD2 expression in healthy peripheral nerve fibers; cited from earlier work

For `O=C(Nc1nc2ccc(NC(=O)C34CC5CC(CC(C5)C3)C4)cc2s1)c1ccccc1` [CERK inhibitor, NVP231], the “OAcGD2 expression (mean fluorescence intensity)” value [1] was “transitory overexpression” and the “migration capacity of the cells” value (MDA-MB-231 GD3S+ cells) was “no effect”.

In the case of `[Na+].[OH-]` [NaOH, Sodium hydroxide], the OAcGD2 staining [2] is reported as “abolished”.

B1: Dinutuximab: anti-GD2 monoclonal antibody approved for pediatric high-risk neuroblastoma (antibody, chains of the INN, looked up, V domains shown)
VH: EVQLLQSGPELEKPGASVMISCKASGSSFTGYNMNWVRQNIGKSLEWIGAIDPYYGGTSYNQKFKGRATLTVDKSSSTAYMHLKSLTSEDSAVYYCVSGMEYWGQGTSVTVSS
VL: EIVMTQSPATLSVSPGERATLSCRSSQSLVHRNGNTYLHWYLQKPGQSPKLLIHKVSNRFSGVPDRFSGSGSGTDFTLKISRVEAEDLGVYFCSQSTHVPPLTFGAGTKLELK
For B1, the side effects [3] is given as “severe side effects”.
